In this experiment the test system is HCV replicon. Description: HCV replicon replication assay (NPT ELISA). The following applies: Hepatitis C virus, 72 h; Huh-7 HCV replicon-containing cells, three days; class symbols; read-out: EC50. The experiment is classed as cell-based. As to the method: Compounds claimed herein are tested for the ability to inhibit viral replication of the Hepatitis C replicon in cultured cells in which the HCV replicon construct has been incorporated. The HCV replicon system was described by Bartenschlager, et. al (Science, 285, pp. 110-113 (1999)). The replicon system is predictive of in vivo anti-HCV activity; compounds that are active in humans uniformly evidence activity in the replicon assay.
In this assay HCV replicon containing cells are treated with different concentrations of the test compound to ascertain the ability of the test compound to suppress replication of the HCV replicon. As a positive control, HCV replicon-containing cells are treated with different concentrations of interferon alpha, a known inhibitor of HCV replication. The replicon assay system includes Neomycin Phosphotransferase (NPT) as a component of the replicon itself in order to detect the transcription of replicon gene products in the host cell. Cells in which the HCV replicon is actively replicating have high levels of NPT; the level of NPT is proportional to HCV replication. […] The NPT level of each sample is measured using a captured ELISA.
A protocol for testing compounds for the ability to inhibit viral replication of the Hepatitis C replicon cultured cells in which the replicon construct has been incorporated, follows.
The HCV replicon contains, 5′-3′, the HCV-IRES, the neomycin phosphotransferase (neo) gene, the IRES of encephalomyocarditis virus, which directs translation of HCV sequences NS3 to NS5B, and the 3′-NTR. The sequence of the HCV replicon has been deposited in GenBank (Accession no. AJ242652).
The replicon is transfected into Huh-7 cells using standard methods such as electroporation.
The equipment and materials include, but are not limited to, Huh-7 HCV replicon-containing cells, maintenance media (DMEM (Dulbecco's modified Eagle media) supplemented with 10% FBS, L-glutamine, non-essential amino acids, penicillin (100 units/ml), streptomycin (100 micrograms/ml), and 500 micrograms/ml of Geneticin (G418), screening media (DMEM supplemented with 10% FBS, L-glutamine, non-essential amino acids, penicillin (100 units/ml) and streptomycin (100 micrograms/ml)), 96 well tissue culture plates (flat bottom), 96 well plates (U bottom for drug dilution), Interferon alpha for positive control, fixation reagent (such as methanol: acetone), primary antibody (rabbit anti-NPTII), secondary antibody: Eu-N1 1, and enhancement solution.
HCV replicon-containing cells support high levels of viral RNA replicon replication when their density is suitable. Over-confluency causes decreased viral RNA replication. Therefore, cells must be kept growing in log phase in the presence of 500 micrograms/ml of G418. Generally, cells should be passed twice a week at 1: 4-6 dilution. Cell maintenance is conducted as follows:
HCV replicon-containing cells are examined under a microscope to ensure that cells growing well. Cells are rinsed once with PBS and 2 ml trypsin is added. The cell/trypsin mixture is incubated at 37° C. in a CO2 incubator for 3-5 minutes. After incubation 10 ml of complete media is added to stop the trypsinization reaction. Cells are blown gently, put into a 15 ml tube, and spun at 1200 rpm for 4 minutes. The trypsin/medium solution is removed. Medium (5 ml) is added and the cells are mixed carefully. The cells are counted.
The cells are then seeded onto 96-well plates at a density of 6000-7500 cells/100 microliters/well (6−7.5×10^5 cells/10 ml/plate). The plates are then incubated at 37° C. in a 5% CO2 incubator.
Cells are examined under a microscope approximated 24 hours after seeding and prior to adding drugs. If counting and dilution were performed correctly, cells are 60-70% confluent and nearly all cells should attach and spread evenly in the well.
HCV replicon-containing cells are rinsed with once PBS once; 2 mls of trypsin are then added. Cells are incubated at 37° C. in a 5% CO2 incubator for 3-5 minutes. […]
A general note: In antiviral work, replicon cells carry a viral genome segment that copies itself.

In US9125904B1, “Biphenyl imidazoles and related compounds useful for treating HCV infections” (ACHILLION PHARMACEUTICALS, INC., priority 2010, dated 2015) one finds EC50 data, which are given here for 2 compounds.

Molecules are shown by their SMILES.

The term EC50 denotes the concentration that produces a half-maximal response. `COC(=O)N[C@H](C(=O)N1C2CCC(C2)[C@H]1c1nc(-c2ccc(-c3c[nH]c([C@@H]4C5CCC(C5)N4C(=O)[C@@H](NC(=O)OC)C(C)C)n3)cc2)c[nH]1)C(C)C` [Compound 74]: the EC50 was under 50 nM.
Turning to `COC(=O)N[C@H](C(=O)N1C2CCC(C2)[C@H]1c1nc(-c2ccc3c(c2)Cc2cc(-c4c[nH]c([C@@H]5C6CCC(C6)N5C(=O)[C@@H](NC(=O)OC)C(C)C)n4)ccc2-3)c[nH]1)C(C)C` [Compound 75], the half-maximal effective concentration (EC50) is under 5 nM.
